Among the data in PubChem BioAssay (NCI) are GI50 and TGI values, retold here.

Common to all, as to experiment: growth of human tumour cells (NCI), 48 h
Experiment [1] has as its system OVCAR-4 ovarian.
In experiment [2] the test system is IGROV1 ovarian.
For experiment [3], the system named is NCI/ADR-RES ovarian.
Experiment [4] concerns U251 CNS.
Experiment [5] concerns SF-268 CNS.
In experiment [6] the test system is RXF 393 renal.
Experiment [7] concerns LOX IMVI melanoma.
Experiment [8] concerns CCRF-CEM leukemia.
Experiment [9] relates to UO-31 renal.
Experiment [10] deals with MOLT-4 leukemia.

The structures appear in SMILES notation.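 Cultured in 96-well plates, cells were exposed to test compound for 48 hours across five concentrations. Abbreviation: GI50, concentration required for 50% inhibition of growth. Definition used: TGI = concentration required for complete inhibition of growth.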 A value given as a limit tells only on which side of the number the result lay.

As for `NC(=O)[C@H]1CCN(c2ncnc(N)c2F)C[C@@H]1N1CCC[C@@H](Nc2cc(Cl)cc(C(F)(F)F)c2)C1=O`, the GI50 in [1] was 15.6 µM; in [2], 5.12 µM; in [3] it was 29.7 µM; in [4], 26.3 µM; in [5], 23.8 µM; in experiment [6], 6.01 µM. For the same compound, the GI50 in experiment [7] is 11.2 µM; in [8] it was 24.5 µM; in [9] it was 9.16 µM; in [10] it was 4.93 µM. In addition, the TGI in experiment [1] is 95.3 µM; in [2], over 100 µM; in experiment [3], over 100 µM; in experiment [4], over 100 µM; in experiment [5], over 100 µM; in [6], 25.5 µM. Besides, the TGI in [7] is 27.1 µM; in experiment [8], over 100 µM; in [9] it was over 100 µM; in experiment [10], 65.9 µM.
Take `N#Cc1ncc(/N=C/c2ccc(N(CCCl)CCCl)cc2)s1`: the GI50 in experiment [1] is 41.8 µM; in experiment [2], 40.4 µM; in experiment [3], 7.36 µM; in [4] it was 18.6 µM; in [5] it was 15.6 µM; in experiment [6] it was 12.4 µM. In addition, the GI50 in experiment [7] is 6.89 µM; in experiment [8], 16 µM; in [9] it was 6.26 µM; in experiment [10], 10.6 µM. Also, the TGI is over 100 µM in [1]; over 100 µM in experiment [2]; over 100 µM in [3]; over 100 µM in [4]; over 100 µM in [5]; 28.9 µM in experiment [6]. Also, the TGI in experiment [7] was over 100 µM; in experiment [8], over 100 µM; in experiment [9], 30 µM; in experiment [10] it was over 100 µM.
With `CCN(CC)c1ccc(/C=C/c2cc(C)c3ccccc3n2)cc1`, the GI50 in experiment [1] was 8.37 µM; in experiment [2], 2.81 µM; in experiment [3], 1.93 µM; in experiment [4] it was 2.36 µM; in experiment [5] it was 5.46 µM; in experiment [6], 3.43 µM. The GI50 is 4.67 µM in experiment [7], 2.85 µM in experiment [8], 3.18 µM in [9] and 4.07 µM in experiment [10]. Besides, the TGI is over 100 µM in [1]; 25.7 µM in [2]; 16.3 µM in experiment [3]; 21.1 µM in experiment [4]; 74.4 µM in experiment [5]; 9.44 µM in experiment [6]. In addition, the TGI in experiment [7] was determined as 28.1 µM; in experiment [8], 87.8 µM; in experiment [9], 15 µM; in experiment [10], 43.1 µM.
As for `Fc1ccc(-c2nc3n(c2-c2ccncc2)CCS3)cc1`, the GI50 in experiment [1] is 9.67 µM; in [2], over 25 µM; in [3], over 25 µM; in experiment [4], over 25 µM; in experiment [5], over 25 µM; in experiment [6], over 16.5 µM. Also, the GI50 was over 25 µM in experiment [7], over 25 µM in experiment [8], 8.26 µM in [9] and over 25 µM in [10]. For the same compound, the TGI in [1], in experiment [2], in experiment [3], in experiment [4], in [5] and in [6] was over 25 µM throughout. Further, the TGI in experiment [7], in [8], in experiment [9] and in experiment [10] was over 25 µM each time.
In the case of `CCCN1C(=O)/C(=c2\sc3n(c2=O)C2C(NN=3)N(CC)C(=O)N2CC)c2ccccc21` (stereo not given), the GI50 is 0.933 µM in experiment [1]; 0.876 µM in [2]; 0.366 µM in experiment [3]; 0.485 µM in experiment [4]; 0.959 µM in experiment [5]; 0.277 µM in experiment [6]. The GI50 in experiment [7] is 0.629 µM; in experiment [8], 0.423 µM; in experiment [9], 0.744 µM; in experiment [10], 0.811 µM. Also, the TGI in experiment [1] came out at 12.8 µM; in experiment [2], 14.1 µM; in [3] it was 10.9 µM; in experiment [4], 12.3 µM; in experiment [5], 19 µM; in experiment [6] it was 3.23 µM. The TGI in experiment [7] is 18.8 µM; in [8] it was over 100 µM; in experiment [9] it was 17.6 µM; in experiment [10] it was over 100 µM.
`OCC1OC(n2ccc3c2ncn2ncnc32)C(O)C1O` (stereo not given): the GI50 in experiment [1] is 5.1 µM; in experiment [2] it was 3.73 µM; in [3] it was 0.712 µM; in [4] it was 47.7 µM; in experiment [5] it was 6.83 µM; in experiment [6], 0.989 µM. Further, the GI50 in [7] was 0.29 µM; in experiment [8] it was 0.596 µM; in experiment [9], 2.74 µM; in experiment [10] it was 0.407 µM. The TGI in experiment [1] is 63.1 µM; in [2], over 47.4 µM; in experiment [3], 63.7 µM; in experiment [4], over 100 µM; in experiment [5], over 100 µM; in [6] it was 13.8 µM. In addition, the TGI in experiment [7] was 1.76 µM; in experiment [8] it was over 100 µM; in experiment [9] it was over 100 µM; in experiment [10], over 43.1 µM.
As for `N#CC(C#N)=Cc1ccc(-c2ccc(-c3nc4ccccc4s3)cc2)o1`, the GI50 is 30.5 µM in experiment [1]; 3.7 µM in experiment [2]; 4.16 µM in [3]; 12 µM in experiment [4]; 27.6 µM in [5]; 42.4 µM in experiment [6]. The GI50 was 15.1 µM in [7], 4.15 µM in [8], 20.3 µM in experiment [9] and 14 µM in [10]. The TGI is over 100 µM in experiment [1]; 56.3 µM in experiment [2]; 14.3 µM in experiment [3]; 24.8 µM in [4]; over 100 µM in [5]; over 100 µM in [6]. The TGI in experiment [7] is 30.3 µM; in experiment [8], 70.6 µM; in [9], over 100 µM; in experiment [10] it was over 100 µM.
